PMC9061999, “Application of the Adverse Outcome Pathway Concept to In Vitro Nephrotoxicity Assessment: Kidney Injury due to Receptor-Mediated Endocytosis and Lysosomal Overload as a Case Study” (Frontiers in Toxicology, 2022)

Legend:
RPTEC/TERT1 cells [1] = assay: LC-MS/MS analysis of intracellular concentration; type: in vitro ADME, human; settings: for Intracellular concentration after recovery compared to the 24 h time-point: RPTEC/TERT1, 34 µM for 24 h, then 24 h in fresh medium; for Time course of intracellular concentration: within the 24 h treatment period (1-2 min, 1, 3, 6, 24 h), n = 3
Experimental: NRK-52E and RPTEC/TERT1 cells were seeded in 12-well plates (120,000 cells per well) and were allowed to grow for 48 h (NRK-52E) or 10 d (RPTEC/TERT1) until they reached 100% confluence. After cells achieved 100% confluence, the supernatant was aspirated, and the cells were washed twice with 1 x PBS. Cells were treated with polymyxins at a final concentration of 34 µM for 24 h. Samples were taken at five different treatment time points (1–2 min, 1, 3, 6, and 24 h). In addition, a recovery sample was taken 24 h after the end of the 24 h treatment period. To this end, the supernatant was aspirated after 24 h treatment and the cells were washed three times with 1 x PBS to remove polymyxin B or colistin residues. Fresh growth medium was added, and the cells were incubated for another 24 h. At the end of each experiment, the cells were washed 3 times with 1 x PBS and trypsinized by adding 200 µL of trypsin. Detached cells were washed with 1,000 µL 1 x PBS and the cells were transferred to LoBind™ tubes (Eppendorf). Cell count was determined using a Fuchs-Rosenthal counting chamber (Hartenstein). Cells were centrifuged for 5 min at 4°C at 10.000 rpm and the supernatant was aspirated. Cells were resuspended in 1,000 µL 1 x PBS and centrifuged for 5 min at 4°C at 10.000 rpm. After centrifugation, the supernatant was aspirated, and the cell pellet was resuspended in 250 µL ammonium acetate buffer (10 mM) and 250 µL of 30% methanol with 1% acetic acid containing polymyxin B respectively colistin as an internal standard. Cells were sonicated for 10 min and centrifuged for 5 min at 4°C at 14.000 rpm. The supernatant was transferred quantitatively into new LoBind™ tubes (Eppendorf) and dried in a centrifugal vacuum concentrator for 2–3 h. To measure compound plastic binding, the empty 12 well plates were washed with 1.5 ml acetonitrile on an orbital shaker for 2 h and supernatant was collected. For sample purification via solid phase extraction, SPE cartridges Strata-X 33 µm polymeric reversed phase, 10 mg/1 ml (Phenomenex) were used. In the conditioning step the cartridges were rinsed with 200 µL methanol (100%) and subsequently with 200 µL ddH2O to activate the sorbent bed. The dried samples were dissolved in 200 µL 1% acetic acid and transferred onto the SPE cartridge. The SPE cartridge were rinsed once with 200 µL 1% acetic acid. Impurities were removed by rinsing the cartridge once with 200 µL 10% methanol. A fresh LoBind™ tube (Eppendorf) was placed under the SPE cartridge to eluate the samples by rinsing twice with 200 µL 90% methanol containing 1% acetic acid. The samples were dried in a centrifugal vacuum concentrator for 2–3 h. All samples were stored at −20°C until LC-MS/MS analysis.
A triple quadrupole mass spectrometer equipped with a Turbo-Ion® Spray source (QTrap API 2000; AB Sciex Instruments) was used for analyses. The mass spectrometer was coupled to an Agilent 1100 HPLC system consisting of a binary pump system, a vacuum degasser and an autosampler (Agilent 1,100). […]

RPTEC/TERT1 cells [2] = assay: CellTiter-Glo cytotoxicity assay (KE3); type: cell-based, human; settings: for BMC10, KE3: in vitro POD from KE dose-response, cell viability CellTiter-Glo, RPTEC/TERT1, 24 h treatment, n = 3; for MOE, KE3: margin of exposure: BMC10 in RPTEC/TERT1 vs human plasma/serum concentration (cmax or css)
Experimental: Cells were plated into 96-well tissue culture plates (10,000 cells per well) and were allowed to grow for 48 h (NRK-52E) respectively 10 d (RPTEC/TERT1) prior to 24 h treatment with model stressors. Stock solution for each compound (2000 µM) was prepared in growth medium and serial dilutions (1:1) were made before each experiment. At the end of the 24 h treatment, cell viability was measured using the CellTiter-Glo® assay (Promega). CellTiter-Glo® reagents and buffer were mixed under light-protected conditions and 100 µL CellTiter-Glo® solution was added directly to each well followed by 2 min incubation on an orbital shaker and 10 min incubation at room temperature in the dark to stabilize the luminescence signal. The suspension was mixed via pipetting and 50 µL were transferred into white 96-well plates (PerkinElmer Inc.). The luminescence signal was measured on a multiplate reader (Mithras LB 940; Berthold). Each assay was performed in three independent experiments carried out in triplicates.

Row | Substance | Intracellular concentration compared to polymyxin B (RPTEC/TERT1 cells [1]; RPTEC/TERT1, 34 µM) | Intracellular concentration after recovery compared to the 24 h time-point (RPTEC/TERT1 cells [1]) | Time course of intracellular concentration (RPTEC/TERT1 cells [1]; RPTEC/TERT1, 34 µM) | BMC10, KE3 (RPTEC/TERT1 cells [2]) [µM] | MOE, KE3 (RPTEC/TERT1 cells [2])
1 | Colistin | lower intracellular concentrations | declined during the 24 h off-dose recovery period | continuous rise in the intracellular concentration | 23.5 | 2.9 – 56.0
2 | Polymyxin B |  | declined during the 24 h off-dose recovery period | continuous rise in the intracellular concentration | 14.2 | 3.5 – 24.9
